Assay results from the supplement of paper PMC4862054.

Tests used:
Assay in all cases: normalised response (% of control), CellTiter-Glo; higher = more viable cells (100 = DMSO, 0 = benzethonium chloride kill control)
Details in all cases: incubation time: 72 h
[1] = test system: SK-BR-3
Outline: (§1)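 In 384-well plates holding compound at 5 concentrations in 10-fold steps over a 10,000-fold range specific to each compound, breast cancer cell lines were seeded as 20 µl suspension and incubated 72 h. CellTox Green fluorescence was measured at 485/520 nm, after which CellTiter-Glo luminescence was measured following 10 min at room temperature. Plate signals were normalised to 0.1 % DMSO (100) and a positive kill control (0), and each value is the normalised signal at a single concentration.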

[2] = test system: HCC1143
Outline: as §1

[3] = test system: CAL-148
Outline: as §1

[4] = test system: MDA-MB-231
Outline: as §1

[5] = test system: MDA-MB-468
Outline: as §1

[6] = test system: BT-549
Outline: as §1

[7] = test system: CAL-85-1
Outline: as §1

[8] = test system: MDA-MB-436
Outline: as §1

[9] = test system: HDQ-P1
Outline: as §1

[10] = test system: HCC1937
Outline: as §1

[11] = test system: MFM-223
Outline: as §1

[12] = test system: MCF-10A
Outline: as §1

[13] = test system: CAL-120
Outline: as §1

[14] = test system: CAL-51
Outline: as §1

[15] = test system: MDA-MB-453
Outline: as §1

[16] = test system: BT-474
Outline: as §1

[17] = test system: HCC1599
Outline: as §1

[18] = test system: DU-4475
Outline: as §1

[19] = test system: Hs578T
Outline: as §1

SMILES	normalised response [1]	normalised response [2]	normalised response [3]	normalised response [4]	normalised response [5]	normalised response [6]	normalised response [7]	normalised response [8]	normalised response [9]	normalised response [10]	normalised response [11]	normalised response [12]	normalised response [13]	normalised response [14]	normalised response [15]	normalised response [16]	normalised response [17]	normalised response [18]	normalised response [19]
COc1ccc(-c2cc3c(C)nc(N)nc3n([C@H]3CC[C@H](OCCO)CC3)c2=O)cn1 (1 nM)	80.9%	88.6%	82.3%	96.5%	97%	101%	93.8%	83.5%	89.5%	96.2%	85.4%	84.8%	91.1%	112%	97.4%	93.4%	104%	90.7%	96.8%
Cc1c(Cn2c(C)nc3c(C(=O)O)cc(N4CCOCC4)cc32)cccc1C(F)(F)F (1 nM)	106%	108%	101%	107%	97.5%	99.8%	96.9%	95.8%	103%	96%	104%	113%	101%	104%	100%	95.9%	73.8%	99.1%	98.5%
COc1ccc(-c2cc3c(C)nc(N)nc3n([C@H]3CC[C@H](OCCO)CC3)c2=O)cn1 (10 nM)	67.2%	96.5%	87.8%	90.7%	82.6%	89.6%	90.8%	85.4%	87.2%	86.2%	88.9%	79.8%	92.3%	82.8%	83.5%	88.8%	89.3%	93.2%	94.8%
Cc1c(Cn2c(C)nc3c(C(=O)O)cc(N4CCOCC4)cc32)cccc1C(F)(F)F (10 nM)	100%	104%	112%	107%	105%	94.8%	99.5%	98.9%	101%	98.8%	104%	118%	99.5%	79.4%	100%	101%	118%	102%	105%
CC/C(=C(\c1ccc(O)cc1)c1ccc(OCCN(C)C)cc1)c1ccccc1 [4-hydroxytamoxifen] (1 nM)	107%	95%	102%	96.6%	98.8%	107%	100%	103%	97.7%	99.6%	101%	101%	98.6%	91.2%	107%	101%	96%	99.4%	108%
CC/C(=C(\c1ccc(O)cc1)c1ccc(OCCN(C)C)cc1)c1ccccc1 [4-hydroxytamoxifen] (10 nM)	98.3%	101%	110%	96.8%	108%	97.1%	97%	90%	95.7%	97%	104%	109%	98.3%	88.4%	112%	96.7%	93.5%	103%	102%
CCCCC/C=C/C=C1/C(=O)C=C[C@@H]1C/C=C\CCCC(=O)O [15D-PGJ2] (0.08 nM)	106%	102%	108%	106%	95.8%	98.4%	95.3%	102%	104%	94.5%	103%	103%	102%	96.8%	111%	102%	101%	96.6%	99.6%
O=C(Nc1c[nH]nc1-c1nc2ccc(CN3CCOCC3)cc2[nH]1)NC1CC1 [AT9283] (1 nM)		102%	94.5%	102%	97.5%	97.3%	98.7%	103%	103%	102%	103%	101%	93.4%	103%	98.6%	95.7%	101%	102%	98.7%
CCC/C=C/C=C/C(=O)O[C@H]1/C(=C/C(=O)OC)C[C@H]2C[C@H]([C@@H](C)O)OC(=O)C[C@H](O)C[C@@H]3C[C@H](OC(C)=O)C(C)(C)[C@](O)(C[C@@H]4C/C(=C/C(=O)OC)C[C@H](/C=C/C(C)(C)[C@]1(O)O2)O4)O3 [Bryostatin 1] (0.1 nM)		101%	115%	103%	94.3%	95.8%	98.2%	107%	91.5%	99%	105%	109%	91.1%	119%	97.7%	103%	116%	97%	95.5%
CO[C@@H](C(=O)N1Cc2[nH]nc(NC(=O)c3ccc(N4CCN(C)CC4)cc3)c2C1)c1ccccc1 [Danusertib] (10 nM)		95.7%	95.7%	96.6%	87.1%	99.7%	94.9%	105%	97.9%	93.8%	103%	103%	93.4%	113%	103%	102%	98.1%	102%	99.2%
Cc1nc(Nc2ncc(C(=O)Nc3c(C)cccc3Cl)s2)cc(N2CCN(CCO)CC2)n1 [Dasatinib] (1 nM)		97.9%	93.7%	87.9%	95.6%	103%	101%	94.5%	93.5%	99.6%	97.7%	90%	98.9%	106%	101%	93.5%	115%	96.4%	103%
O=S(=O)(c1cccc2cnccc12)N1CCCNCC1 [Fasudil] (50 nM)		102%	102%	99.9%	101%	101%	97%	106%	96.6%	99.4%	99.3%	104%	94.3%	117%	104%	97.8%	98.5%	104%	94.9%
Cc1cccc(-c2nn3c(c2-c2ccnc4ccc(C(N)=O)cc24)CCC3)n1 [Galunisertib] (1 nM)		111%	123%	105%	104%	102%	99.5%	108%	102%	99%	107%	102%	101%	92.5%	115%	109%	103%	107%	103%
C[C@]12O[C@H](C[C@]1(O)CO)n1c3ccccc3c3c4c(c5c6ccccc6n2c5c31)CNC4=O [Lestaurtinib] (1 nM)		102%	100%	99.8%	102%	97.3%	104%	100%	95.4%	98.9%	101%	96.6%	93.9%	133%	94.3%	104%	90.8%	97.7%	101%
Nc1ccccc1NC(=O)c1ccc(CNc2nccc(-c3cccnc3)n2)cc1 [Mocetinostat] (10 nM)		97.6%	98.1%	103%	101%	98.3%	95.7%	99.1%	110%	104%	100%	106%	97%	129%	105%	98.4%	94.3%	105%	103%
Cc1ccc(Nc2nccc(N(C)c3ccc4c(C)n(C)nc4c3)n2)cc1S(N)(=O)=O [Pazopanib] (10 nM)		102%	104%	98.2%	104%	93.9%	100%	107%	97.2%	100%	98%	97.2%	91.9%	82.8%	109%	98.2%	100%	107%	94.8%
CS(=O)(=O)N1CCN(Cc2cc3nc(-c4cccc5[nH]ncc45)nc(N4CCOCC4)c3s2)CC1 [Pictilisib] (1 nM)	107%		93.1%	101%	99.5%	104%	119%	91.1%	97.3%	95%	104%	102%	93.9%	102%	112%	92.7%	96.8%	104%	99.7%
O=C(NC[C@H](O)CO)c1ccncc1Nc1ccc(I)cc1F [Pimasertib] (10 nM)		94.2%	90.8%	97.6%	91.9%	91.4%	87.8%	107%	81.1%	102%	99.2%	66.6%	103%	124%	99.7%	102%	105%	83.9%	92.2%
c1cc(CN2CCCNCCNCCCNCC2)ccc1CN1CCCNCCNCCCNCC1 [Plerixafor] (10 nM)		105%	91.1%	99%	94.1%	99.6%	93.1%	97.3%	103%	102%	88.6%	81.5%	96.2%	82.7%	81.9%	97.2%	95.2%	91.1%	97.7%
CNC(=O)c1cc(Oc2ccc(NC(=O)Nc3ccc(Cl)c(C(F)(F)F)c3)cc2)ccn1 [Sorafenib] (1 nM)		100%	114%	102%	106%	94.7%	104%	96.4%	102%	101%	107%	105%	98.2%	119%	93.8%	104%	109%	103%	102%
CC[C@@]1(O)C(=O)OCc2c1cc1n(c2=O)Cc2cc3c(CN(C)C)c(O)ccc3nc2-1 [Topotecan] (10 nM)		93.9%	103%	94.1%	97.6%	90.3%	95.8%	94.4%	98.4%	95.8%	99.9%	92.7%	96.1%	91.9%	104%	98.2%	93.2%	95.4%	100%
